{"source": "paper PMC9413440", "about": "“An Iterative Approach Guides Discovery of the FabI Inhibitor Fabimycin, a Late-Stage Antibiotic Candidate with In Vivo Efficacy against Drug-Resistant Gram-Negative Infections” (ACS Central Science, 2022)", "key": {"[1]": {"system": "Stenotrophomonas maltophilia ATCC 13637", "test": "MIC, commensal bacteria", "type": "cell-based", "settings": "ATCC13637", "procedure": "(§1) II. Materials and Methods for Biological Experiments\n(§2) S. aureus ATCC 29213 and E. coli MG1655 were obtained from the American Type Culture Collection (ATCC). E. coli BW25113 and E. coli JW5503 were obtained from the Keio Collection. AR-bank strains were obtained from the Centers for Disease Control and Prevention and FDA Antibiotic Resistance Isolate Bank.\n(§3) Antimicrobial susceptibility tests\n(§4) Susceptibility testing was performed in biological triplicate, unless noted otherwise, using the micro-dilution broth method as outlined by the Clinical and Laboratory Standards Institute. Bacteria were cultured with cation-adjusted Mueller Hinton broth (Sigma Aldrich, catalogue number: 90922). […]\n(§5) Error bars represent the standard error of the mean of three biological replicates. All compounds evaluated in biological assays were ≥95% pure."}, "[2]": {"system": "Bacteroides fragilis ATCC 25285", "test": "MIC, commensal bacteria", "type": "cell-based", "settings": "ATCC25285", "procedure": "as §1, §2, §3, §4, §5"}, "[3]": {"system": "Streptococcus salivarius KLE 2370", "test": "MIC, commensal bacteria", "type": "cell-based", "settings": "KLE2370", "procedure": "as §1, §2, §3, §4, §5"}, "[4]": {"type": "in vitro ADME", "procedure": "Forward 5’-GGG-GCC-AGC-GTT-TCT-TTT-TC-3‘ Parker, 20203\nReverse 5’-AAA-CAT-GGA-GAC-GGT-GCT-GG\nForward 5’-GTG-AGA-TCG-GCA-TGA-CAC-AA-3’ Lin, 20179\nReverse 5’-CTG-AAG-TCC-GCT-ACC-GTT-AT-3’\nCompound stability in mammalian plasma\nCandidate drugs were incubated with plasma and parent drug levels were monitored at various time points (generally t=0, 10, 20, 30, and 60 minutes) to determine the drug’s half-life in the presence of the chosen system. Each drug is tested in duplicate. Compounds were diluted from 10 mM DMSO stocks to 1 µM in a 100 mM pH 7.4 phosphate buffer and incubated at 37 °C with 0.5 mg/mL of human, rat, or mouse plasma (BioreclamationIVT, Baltimore, MD). Time points were collected at 0 min (after addition of drug), 15 min, 30 min, 60 min, and 120 min following quenching with an equal volume of acetonitrile. The supernatant was collected after centrifugation, and the sample analyzed by LC-MS where the percentage of compound remaining is plotted vs time to determine the drug’s half-life.\nCompound plasma protein binding\nCandidate drugs were incubated with plasma and parent drug levels are monitored after 4 hours to determine the drug’s free concentration in the presence of the plasma proteins. The standard assay involves equilibrium dialysis, in which compound is allowed to equilibrate between a protein-containing compartment from a protein-free compartment. Each"}, "[5]": {"system": "HFF-1, A549, HepG2 cells", "settings": "72 h", "procedure": "HFF-1 cells (newborn) were obtained from the ATCC. HFF-1 cells were grown in Dulbecco’s Modified Eagle’s minimum essential medium with 15% fetal bovine serum (Gemini Benchmark; catalogue number: 100-106), 100 µg/mL penicillin and 100 µg/mL streptomycin. A549 cells ([…], adult) were obtained from the ATCC. A549 cells were grown in Roswell Park Memorial Institute (RPMI) media with 100 µg/mL penicillin and 10% fetal bovine serum (FBS). HepG2 cells were authenticated by the University of Arizona Genetics Core using an autosomal STR profile. HepG2 cells were grown in Dulbecco’s Modified Eagle’s minimum essential medium with 10% fetal bovine serum. All cells were cultured at 37 °C under a 5% CO2 environment. Cell lines were authenticated by a commercial vendor and inspected visually in house. Cell lines were not tested for Mycoplasma contamination. The media was prepared by the University of Illinois School of Chemical Sciences Cell Media Facility.\nH. sapiens HFF-1, A549, and HepG2 cells were seeded (3,000-6,000 cells/well) in a 96-well plate (Greiner Bio-One;"}, "[6]": {"system": "A. baumannii AR-0088", "test": "Dose-ranging and efficacy, neutropenic thigh infection", "type": "in vivo, mouse", "settings": "neutropenic BALB/c mice, burden at 26 h", "description": "Neutropenic thigh infection model\nAcclimated CD-1 mice (see above) were rendered neutropenic prior to the experiment via cyclophosphamide treatment. […]\nDose-ranging and efficacy of fabimycin\nThe protocol to assess fabimycin’s efficacy in A. baumannii-infected mice (strain: AR-0088) was approved by the IACUC at Pharmacology Discovery Services, Taiwan, Ltd. (protocol number: IM003-01282019). In this study, neutropenic female BALB/c mice 7-8 weeks in age from BioLASCO Taiwan (AAALAC-certified Charles River Licensee) weighing 18 ± 2 grams were used. The mice were rendered neutropenic and inoculated in the same method as used for the pharmacokinetic study. Fabimycin was formulated in 17% Cremophor EL/3% SBE-β-CD and IV administered. Colistin was formulated in 0.9% NaCl and subcutaneously (SC) administered.\n5 or 30 minutes after dosing with respect to IV and SC route to detect acute toxicity, which was recorded and reported, […]\nAnimals were euthanized using compressed CO2 gas in a CO2 gas chamber. […] Bacterial burden in the tissue homogenates was determined by performing 10-fold serial dilutions and plating 0.1 mL of each to nutrient agar plates. Colonies were counted after 18 - 24 h incubation. The colony-forming unit value per tissue (CFU/thigh) was calculated. […]\nIM011-12282020). […] Tissues were collected and pathogen burden evaluated by dilution plating technique on nutrient agar plates."}}, "note": "Where two headings read alike, the source gives them in different places.", "data": [{"smiles": "Cc1c(CN(C)C(=O)/C=C/c2cnc3c(c2)CC[C@H](N)C(=O)N3)oc2ccccc12", "note": "[fabimycin]", "values": [{"measurement": "MIC", "setting": "[1]", "result": 128, "unit": "µg/mL"}, {"measurement": "MIC", "setting": "[2]", "result": "> 128", "unit": "µg/mL"}, {"measurement": "MIC", "setting": "[3]", "result": "> 128", "unit": "µg/mL"}, {"measurement": "stability in plasma", "setting": "[4]; human", "result": "excellent stability"}, {"measurement": "stability in plasma", "setting": "[4]; mouse", "result": "considerable instability"}, {"measurement": "stability in plasma", "setting": "[4]; rat", "result": "excellent stability"}, {"measurement": "cytotoxicity against human cell lines", "setting": "[5]", "result": "less cytotoxic relative to Debio-1452-NH3"}, {"measurement": "reduction of bacterial burden", "setting": "[6]; 75 mg/kg IV four times a day, NDM-1 containing strain", "result": "~2 log(CFU/thigh)"}, {"measurement": "dose at which significant dose-dependent responses begin", "setting": "[6]; IV four times a day, doses 1.25–75 mg/kg", "result": 30, "unit": "mg/kg"}]}]}
